From patent US11617718B2, “Process for producing a nano-CBD microemulsion system” (priority 2019, dated 2023)
Where two headings read alike, the source gives them in different places.

Columns and labels:
[1] = Water solubility / water-dispersing ability; type: physicochemical; settings: FIG. 1, dispersed in water
Protocol: Producing a carrier: 70 ml of PEG was heated to 70° C. 70 ml of the carrier was added to the above-prepared dispersal phase, this dispersal phase continued to be heating to 100° C. and stirred at a speed of 600 rpm.

[2] = cited from earlier work

C=C(C)[C@@H]1CCC(C)=C[C@H]1c1c(O)cc(CCCCC)cc1O [CBD, Cannabidiol]
water-dispersing ability [1]: insoluble in water
half-life ([2]; in vivo): about 9 hours
bioavailability ([2]; used nasally (inhalantly)): about 31%
bioavailability ([2]; used orally): 13-19%
